According to ChEMBL document CHEMBL1127938, “The first synthesis of a C-9 carbonyl modified baccatin III derivative and its conversion to novel taxol and taxotere analogues” (1994):

Key:
B16 [1] = experiment: Compound was tested in vitro inhibition of proliferation against B16 melanoma after a 40h incubation; assay type: functional, Mus musculus
[2] = In vitro concentration in […] which reduces the protein concentration by 50% in a microtubule assembly assay expressed as ED50/ED50 taxol; assay type: functional
B16 [3] = experiment: Compound was tested in vitro inhibition of proliferation against B16 melanoma after a 40h incubation relative to that of taxol (Taxol=1); assay type: functional, Mus musculus
[4] = In vitro concentration in […] which reduces the protein concentration by 50% in a microtubule assembly assay, relative to taxol (1) and expressed as ED50/ED50 taxol; assay type: functional

With `CC(=O)O[C@H]1C(=O)[C@@]2(C)[C@H]([C@H](OC(=O)c3ccccc3)[C@]3(O)C[C@H](OC(=O)[C@H](O)[C@@H](NC(=O)c4ccccc4)c4ccccc4)C(C)=C1C3(C)C)[C@]1(OC(C)=O)CO[C@@H]1C[C@@H]2O` [PACLITAXEL] the ED50 ratio (B16 [1]) was 1 and the ED50 ratio [2] was 1.
`CC(=O)O[C@@]12CO[C@@H]1C[C@H](O)[C@@]1(C)c3oc(=O)oc3C3=C(C)[C@@H](OC(=O)[C@H](O)[C@@H](NC(=O)c4ccccc4)c4ccccc4)C[C@@](O)([C@@H](OC(=O)c4ccccc4)C12)C3(C)C` (stereo partly specified) gave an ED50 ratio (B16 [3]) of 34.5 and an ED50 ratio [4] of 2.4.
With `CC(=O)O[C@@]12CO[C@@H]1C[C@H](O)[C@@]1(C)c3oc(=O)oc3C3=C(C)[C@@H](OC(=O)[C@H](O)[C@@H](NC(=O)OC(C)(C)C)c4ccccc4)C[C@@](O)([C@@H](OC(=O)c4ccccc4)C12)C3(C)C` (stereo partly specified) the ED50 ratio (B16 [3]) was 16.4 and the ED50 ratio [4] was 0.5.
